Measured values as given in article PMC4546622, “Structure of the Glycosyltransferase Ktr4p from Saccharomyces cerevisiae” (PLoS ONE, 2015).
One block for each molecule: values may come before it.

Experiments:
Ktr4p [1] = target: T1, Ktr4p (Saccharomyces cerevisiae, UniProt P38131); assay: coupled phosphatase (ENTPD3/CD39L3) malachite green assay; format: biochemical; settings: 10 μM enzyme, 10 mM MnCl2, 10 mM CaCl2, pH 7.5, 20°C
T1 construct: gene KTR4; lumenal domain (stalk plus catalytic), residues Asn-33 to Tyr-464; N-terminal His6 tag cut off with TEV protease; E. coli Rosetta-gami 2 (DE3); monomer fraction from SEC
T1 sequence (P38131 33-464): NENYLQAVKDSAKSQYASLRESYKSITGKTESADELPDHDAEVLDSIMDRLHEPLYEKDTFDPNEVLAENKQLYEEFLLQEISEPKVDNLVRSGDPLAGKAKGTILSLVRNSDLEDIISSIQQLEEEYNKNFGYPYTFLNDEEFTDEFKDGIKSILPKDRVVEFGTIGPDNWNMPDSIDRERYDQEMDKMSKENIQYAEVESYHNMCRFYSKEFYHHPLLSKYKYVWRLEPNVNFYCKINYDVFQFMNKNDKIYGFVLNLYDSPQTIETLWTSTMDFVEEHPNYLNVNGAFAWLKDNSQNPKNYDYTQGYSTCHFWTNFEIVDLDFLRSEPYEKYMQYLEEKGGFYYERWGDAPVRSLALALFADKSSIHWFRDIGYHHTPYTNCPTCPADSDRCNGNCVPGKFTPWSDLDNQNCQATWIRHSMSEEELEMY

Ktr4p [2] = target: T1, Ktr4p; assay: X-ray crystal structure, […] Å; format: binding; settings: with Mn2+ in the active site; 5 mM GDP and 5 mM MnCl2; pH 6.5; 4°C
[3] = target: the molecule itself; assay: SEC; Superdex 200 16/60, 10 mM HEPES pH 7.4, 150 mM NaCl; final purification step; monomer and dimer peaks at a ratio of ~2:1, monomer peak the largest

- coupled phosphatase (ENTPD3/CD39L3) malachite green assay (Ktr4p [1]; sugar donor, 50 μM, 500 μM acceptor): GDP-mannose is a suitable sugar donor
Molecule: Nc1nc2c(ncn2[C@@H]2O[C@H](COP(=O)(O)OP(=O)(O)O[C@H]3O[C@H](CO)[C@@H](O)[C@H](O)[C@@H]3O)[C@@H](O)[C@H]2O)c(=O)[nH]1 [GDP-mannose]

Molecule: Nc1nc2c(ncn2[C@@H]2O[C@H](COP(=O)(O)OP(=O)(O)O)[C@@H](O)[C@H]2O)c(=O)[nH]1 [GDP]
- X-ray crystal structure, 1.9 Å (Ktr4p [2]): 5a08 for the apo structure and 5a07 for the GDP-complex structure

Molecule: CO[C@H]1O[C@H](CO)[C@@H](O)[C@H](O)[C@@H]1O [methyl-α-mannoside]
- coupled phosphatase (ENTPD3/CD39L3) malachite green assay (Ktr4p [1]; sugar acceptor, 500 μM, 50 μM GDP-mannose): we observe the most efficient activity with methyl-α-mannoside

B1: Ktr4p lumenal domain (residues Asn-33 to Tyr-464; stalk domain and catalytic domain) (domain or fragment, S. cerevisiae, UniProt P38131 33-464, looked up)
chain: T1 sequence (P38131 33-464)
notes: Cloned in pNIC28-Bsa4 with a His6 tag and a TEV site N-terminal of the construct; the tag was removed with TEV protease; A few residues of the vector probably remain at the N-terminus after cleavage (surmised from the forward primer); Residues 33-69/70 are not visible in the structures; source: E. coli Rosetta-gami 2 (DE3), purified (Ni-NTA IMAC, TEV cleavage, second IMAC pass, Superdex 200 SEC); …
- stoichiometry N [3]: 2
